Assay results from article PMC6452907 (Polyhedron, 2019).
pIC50: −log10 of the molar value. Read-outs that look alike come from different tables or passages of the source.

Experiments:
[1] = system: L. donovani axenic amastigotes; test: In vitro antileishmanial assay against L. donovani axenic amastigotes; assay type: cell-based; details: Leishmania donovani, 72 h; for pIC50: read-out: L. donavani Amastigotes IC50; for IC90: read-out: L. donavani Amastigotes IC90
[2] = Cytotoxicity against THP1 cell cultures; assay type: cell-based, human; details: human, THP1 cell cultures
[3] = system: L. donovani promastigotes; test: In vitro antileishmanial assay against L. donovani promastigotes; assay type: cell-based; details: Leishmania donovani, 72 h; for pIC50: read-out: L. donavani Promastigotes IC50; for IC90: read-out: L. donavani Promastigotes IC90
[4] = system: L. donovani intracellular amastigotes in THP1 cells; assay type: cell-based, Leishmania donovani
[5] = system: THP1 cells; test: Cytotoxicity against THP1 cell cultures; assay type: cell-based, human; details: THP1 cells; for pIC50: read-out: THP1 cells (Cytotoxicity) IC50; for IC90: read-out: THP1 cells (Cytotoxicity) IC90
[6] = system: L. donovani amastigotes in mouse macrophages; details: cited from earlier work
[7] = read-out: L. donavani Amastigotes + THP1 IC50, intracellular amastigotes in differentiated THP1 macrophages
[8] = read-out: L. donavani Amastigotes + THP1 IC90, intracellular amastigotes in differentiated THP1 macrophages

SMILES | pIC50 [5] | IC90 [5] [µM] | pIC50 [4, 7] | IC90 [4, 8] [µM] | also measured
C[C@@H]1[C@H](O)[C@@H](C)/C=C/C=C/C=C/C=C/C=C/C=C/C=C/[C@H](O[C@@H]2O[C@H](C)[C@@H](O)[C@H](N)[C@@H]2O)C[C@@H]2O[C@](O)(C[C@@H](O)C[C@@H](O)[C@H](O)CC[C@@H](O)C[C@@H](O)CC(=O)O[C@H]1C)C[C@H](O)[C@H]2C(=O)O [Amphotericine B] | – | – | – | – | pIC50 [1]: 6.10; IC90 [1]: 959 nM; pIC50 [2]: < 5.00; IC90 [2]: > 10 µM; pIC50 [3]: 6.87; IC90 [3]: 0.262 µM; pIC50 ([4]; Leishmania donovani, THP-1, read-out: L. donavani Amastigotes + THP1 IC50): 6.32; IC90 ([4]; Leishmania donovani, THP-1, read-out: L. donavani Amastigotes + THP1 IC90): 1.94 µM
CN1CCCN2CCN(CCCN(Cc3ccccc3)CC2)CC1 [Bn1Me1Bcyclam (L2)] | < 4.70 | > 20 | < 4.70 | > 20 | –
c1ccc(CN2CCN3CCN(CC2)CCN(Cc2ccccc2)CC3)cc1 [Bn2Bcyclen (L3)] | < 4.60 | > 25 | < 4.60 | > 25 | –
c1ccc(CN2CCCNCCN(Cc3ccccc3)CCCNCC2)cc1 [Bn2Cyclam (L10), 1,8-dibenzylcyclam] | < 4.60 | > 25 | 4.89 | 13.2 | –
c1ccc(CN2CCN3CCCN(CC2)CCN(Cc2ccccc2)CC3)cc1 [Bn2PBCyclen (L4)] | < 4.60 | > 25 | 4.74 | > 25 | –
Cl.Cl.Cl.N=C(N)c1cccc(/C=N/N=C(\N)N/N=C/c2cccc(C(=N)N)c2)c1 [CGP40215A] | – | – | – | – | concentration inhibiting growth of L. donovani amastigotes in mouse macrophages ([6]; mouse macrophages): up to 90 μM
c1ccc(CNCCCNCCCCCCCNCCCNCc2ccccc2)cc1 [MDL27695] | – | – | – | – | elimination of L. donovani amastigotes from mouse macrophages ([6]; at a 1 μM concentration): 77–100%
N=C(N)c1ccc(OCCCCCOc2ccc(C(=N)N)cc2)cc1 [Pentamidine] | – | – | – | – | pIC50 [1]: 4.69; IC90 [1]: > 25000 nM; pIC50 [2]: < 4.70; IC90 [2]: > 25 µM; pIC50 [3]: 5.53; IC90 [3]: 6.52 µM
